Data published in patent US9890185B2, “Urea derivatives useful as kinase inhibitors” (Respivert Limited, priority 2013, dated 2018).

What was measured:
PBMCs = assay: LPS-induced IL-8 release in PBMC cells (assay b); assay type: cell-based, human; details: Homo sapiens, PBMC; LPS-stimulated PBMCs; read-out: IC50 Values for Inhibition of Cytokine Release, PBMCs IL-8
Procedure: Peripheral blood mononuclear cells (PBMCs) from healthy subjects are separated from whole blood using a density gradient (Lymphoprep, Axis-Shield Healthcare). The PBMCs are seeded in 96 well plates and treated with compounds at the desired concentration for 2 hours before addition of 1 ng/mL LPS (Escherichia Coli 0111:B4 from Sigma Aldrich) for 24 hours under normal tissue culture conditions (37° C., 5% CO2). The supernatant is harvested for determination of IL-8 and TNFα concentrations by sandwich ELISA (Duo-set, R&D systems) and read on the fluorescence microplate reader (Varioskan® Flash, ThermoFisher Scientific). The concentration at 50% inhibition (IC50) of IL-8 and TNFα production is calculated from the dose response curve.

GSK 3α = GSK 3α (Homo sapiens (Human), UniProt P49840); assay: GSK 3α enzyme inhibition (FRET, Z-LYTE, Method 2); assay type: biochemical; details: read-out: IC50 Values for Enzyme Inhibition, GSK3α
Sequence of GSK 3α (P49840 whole entry): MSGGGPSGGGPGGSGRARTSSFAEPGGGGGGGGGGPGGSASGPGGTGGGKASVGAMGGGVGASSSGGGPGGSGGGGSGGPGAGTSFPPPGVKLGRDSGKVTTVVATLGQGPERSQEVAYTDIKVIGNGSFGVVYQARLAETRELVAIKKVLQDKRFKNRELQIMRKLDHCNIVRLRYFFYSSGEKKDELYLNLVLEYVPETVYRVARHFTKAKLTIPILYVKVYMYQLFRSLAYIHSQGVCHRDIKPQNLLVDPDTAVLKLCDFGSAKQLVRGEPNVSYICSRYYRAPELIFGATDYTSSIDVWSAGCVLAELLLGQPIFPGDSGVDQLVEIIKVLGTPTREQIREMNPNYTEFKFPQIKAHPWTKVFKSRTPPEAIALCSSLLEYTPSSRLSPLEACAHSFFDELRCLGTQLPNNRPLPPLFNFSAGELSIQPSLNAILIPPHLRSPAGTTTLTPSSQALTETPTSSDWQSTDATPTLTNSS
Procedure: The enzyme inhibitory activities of compounds disclosed herein are determined by FRET using synthetic peptides labelled with both donor and acceptor fluorophores (Z-LYTE, Invitrogen Ltd., Paisley, UK).
The following two assay variants can be used for determination of GSK 3α inhibition.
The inhibitory activities of compounds of the invention against the GSK 3α enzyme isoform (Invitrogen), are evaluated by determining the level of activation/phosphorylation of the target peptide. The GSK3-α protein (500 ng/mL, 2.5 μL) is mixed with the test compound (2.5 μL at either 4 μg/mL, 0.4 μg/mL, 0.04 μg/mL, or 0.004 μg/mL) for 2 hr at RT. The FRET peptide (8 μM, 2.5 μL), which is a phosphorylation target for GSK3α, and ATP (40 μM, 2.5 μL) are then added to the enzyme/compound mixture and the resulting mixture incubated for 1 hr. Development reagent (protease, 5 μL) is added for 1 hr prior to detection in a fluorescence microplate reader (Varioskan® Flash, ThermoFisher Scientific).
In all cases, the site-specific protease cleaves non-phosphorylated peptide only and eliminates the FRET signal. Phosphorylation levels of each reaction are calculated using the ratio of coumarin emission (donor) over fluorescein emission (acceptor), for which high ratios indicate high phosphorylation and low ratios indicate low phosphorylation levels. The percentage inhibition of each reaction is calculated relative to non-inhibited control and the 50% inhibitory concentration (IC50 value) is then calculated from the concentration-response curve.
This method follows the same steps as Method 1 above, but utilises a shorter period of mixing of the test compound (105 minutes instead of 2 hours) with the GSK3-α protein.

Structure (SMILES) | IC50 (GSK 3α) [nM] | IC50 (PBMCs) [nM]
COc1cc(Nc2nccc(Oc3ccc(NC(=O)Nc4cc(C(C)(C)C)cc(C(=O)NCCN5CCOCC5)c4OC)c4ccccc34)n2)cc(C(=O)NCCN2CCOCC2)c1 [38(ak), 5-(tert-Butyl)-2-methoxy-3-(3-(4-((2-((3-methoxy-5-((2-morpholinoethyl)carbamoyl)-phenyl)amino)pyrimidin-4-yl)oxy)naphthalen-1-yl)ureido)-N-(2-morpholinoethyl)benzamide] | 461 | 1.2
COc1cc(Nc2cc(Oc3ccc(NC(=O)Nc4cc(C(C)(C)C)cc(S(C)(=O)=O)c4OC)c4ccccc34)ccn2)ccc1C(=O)NCCN1CCOCC1 [38(ap), 4-((4-((4-(3-(5-(tert-Butyl)-2-methoxy-3-(methylsulfonyl)phenyl)ureido)naphthalen-1-yl)oxy)pyridin-2-yl)amino)-2-methoxy-N-(2-morpholinoethyl)benzamide] | > 5800 | 4.5
COc1c(NC(=O)Nc2ccc(Oc3ccnc(Nc4ccccc4)c3)c3ccccc23)cc(C(C)(C)C)cc1[S+](C)[O-] (stereo not shown) [38(b1), 1-(5-(tert-Butyl)-2-methoxy-3-(methylsulfinyl)phenyl)-3-(4-((2-(phenylamino)pyridin-4-yl)oxy)naphthalen-1-yl)urea] | > 9660 | 8.3
COc1cccc(Nc2cc(Oc3ccc(NC(=O)Nc4cc(C(C)(C)C)cc(CC(=O)N(C)C)c4OC)c4ccccc34)ccn2)c1 [38(i), 2-(5-(tert-Butyl)-2-methoxy-3-(3-(4-((2-((3-methoxyphenyl)amino)pyridin-4-yl)oxy)naphthalen-1-yl)ureido)phenyl)-N,N-dimethylacetamide] | > 15400 | 11.4
COc1cccc(Nc2cc(Oc3ccc(NC(=O)Nc4cc(C(C)(C)C)cc(CC(=O)N5CCOCC5)c4OC)c4ccccc34)ccn2)c1 [38(j), 1-(5-(tert-Butyl)-2-methoxy-3-(2-morpholino-2-oxoethyl)phenyl)-3-(4-((2-((3-methoxyphenyl)amino)pyridin-4-yl)oxy)naphthalen-1-yl)urea] | > 14500 | 12.5
COc1c(CC(N)=O)cc(C(C)(C)C)cc1NC(=O)Nc1ccc(Oc2ccnc(Nc3ccccc3)c2)c(F)c1F [38(l), 2-(5-(tert-Butyl)-3-(3-(2,3-difluoro-4-((2-(phenylamino)pyridin-4-yl)oxy)phenyl)ureido)-2-methoxyphenyl)acetamide] | 472 | 5.9
COc1cc(Nc2cc(Oc3ccc(NC(=O)Nc4cc(C(C)(C)C)cc(P(C)(C)=O)c4OC)c4ccccc34)ccn2)ccc1C(=O)N1CCN(C)CC1 [79(a), 1-(5-tert-Butyl-3-dimethylphosphoryl-2-methoxy-phenyl)-3-[4-[[2-[3-methoxy-4-(4-methylpiperazine-1-carbonyl)anilino]-4-pyridyl]oxy]-1-naphthyl]urea] | 480 | 5.1
COc1cc(Nc2cc(Oc3ccc(NC(=O)Nc4cc(C(C)(C)C)cc(P(C)(C)=O)c4OC)c4ccccc34)ccn2)ccc1C(=O)NC1CCN(C)CC1 [79(b), 4-[[4-[[4-[(5-tert-Butyl-3-dimethylphosphoryl-2-methoxy-phenyl)carbamoylamino]-1-naphthyl]oxy]-2-pyridyl]amino]-2-methoxy-N-(1-methyl-4-piperidyl)benzamide] | 1880 | 7.4
COc1cc(Nc2cc(Oc3ccc(NC(=O)Nc4cc(C(C)(C)C)cc(P(C)(C)=O)c4OC)c4ccccc34)ccn2)ccc1C(=O)NCCN(C)C [79(c), 4-[[4-[[4-[(5-tert-Butyl-3-dimethylphosphoryl-2-methoxy-phenyl)carbamoylamino]-1-naphthyl]oxy]-2-pyridyl]amino]-N-(2-dimethylaminoethyl)-2-methoxy-benzamide] | 1770 | 7
CNC(=O)c1cc(Nc2cc(Oc3ccc(NC(=O)Nc4cc(C(C)(C)C)cc(P(C)(C)=O)c4OC)c4ccccc34)ccn2)cc(OCCN2CCOCC2)c1 [79(f), 3-[[4-[[4-[(5-tert-Butyl-3-dimethylphosphoryl-2-methoxy-phenyl)carbamoylamino]-1-naphthyl]oxy]-2-pyridyl]amino]-N-methyl-5-(2-morpholinoethoxy)benzamide] | 957 | 3.9
COCCOCCOCCOc1cc(Nc2cc(Oc3ccc(NC(=O)Nc4cc(C(C)(C)C)cc(P(C)(C)=O)c4OC)c4ccccc34)ncn2)cc(OC)c1 [Example 4, 1-(5-(tert-Butyl)-3-(dimethylphosphoryl)-2-methoxyphenyl)-3-(4-((6-((3-methoxy-5-(2-(2-(2-methoxyethoxy)ethoxy)ethoxy)phenyl)amino)pyrimidin-4-yl)oxy)naphthalen-1-yl)urea] | 4100 | 5.6
COc1cc(Nc2nccc(Oc3ccc(NC(=O)Nc4cc(C(C)(C)C)cc(P(C)(C)=O)c4OC)c4ccccc34)n2)cc(P(C)(C)=O)c1 [Example 21, 1-(5-(tert-Butyl)-3-(dimethylphosphoryl)-2-methoxyphenyl)-3-(4-((2-((3-(dimethylphosphoryl)-5-methoxyphenyl)amino)pyrimidin-4-yl)oxy)naphthalen-1-yl)urea] | 282 | 3.2
COc1c(NC(=O)Nc2ccc(Oc3ccnc(Nc4ccccc4)c3)c3ccccc23)cc(C(C)(C)C)cc1C(=O)NCCN1CCNCC1 [Example 23, 5-(tert-Butyl)-2-methoxy-3-(3-(4-((2-(phenylamino)pyridin-4-yl)oxy)naphthalen-1-yl)ureido)-N-(2-(piperazin-1-yl)ethyl)benzamide] | 7940 | 6.8
COc1c(NC(=O)Nc2ccc(Oc3ccnc(NC(=O)CN4C[C@@H](C)O[C@@H](C)C4)c3)c3ccccc23)cc(C(C)(C)C)cc1P(C)(C)=O [Example 26, N-(4-((4-(3-(5-(tert-Butyl)-3-(dimethylphosphoryl)-2-methoxyphenyl)ureido)naphthalen-1-yl)oxy)pyridin-2-yl)-2-(cis-2,6-dimethylmorpholino)acetamide] | 249 | 2.2

More lines, main results first:

IC50 (GSK 3α) [nM] | Structure (SMILES) | IC50 (PBMCs) [nM]
370 | COCCOCCOCCNC(=O)c1cc(Nc2cc(Oc3ccc(NC(=O)Nc4cc(C(C)(C)C)cc(CC(N)=O)c4OC)c(Cl)c3Cl)ccn2)cc(OC)c1 [38(ag), 3-((4-(4-(3-(3-(2-Amino-2-oxoethyl)-5-(tert-butyl)-2-methoxyphenyl)ureido)-2,3-dichlorophenoxy)pyridin-2-yl)amino)-5-methoxy-N-(2-(2-(2-methoxyethoxy)ethoxy)ethyl)benzamide] | 0.6
1500 | COc1cc(Nc2cc(Oc3ccc(NC(=O)Nc4cc(C(C)(C)C)cc(P(C)(C)=O)c4OC)c4ccccc34)ccn2)cc(C(=O)NCCN2CC[S+]([O-])CC2)c1 [38(am), 3-((4-((4-(3-(5-(tert-Butyl)-3-(dimethylphosphoryl)-2-methoxyphenyl)ureido)naphthalen-1-yl)oxy)pyridin-2-yl)amino)-5-methoxy-N-(2-(1-oxidothiomorpholino)ethyl)benzamide] | 6.2
> 15800 | COc1c(CNC(C)=O)cc(C(C)(C)C)cc1NC(=O)Nc1ccc(Oc2ccnc(Nc3cc(C)cc(C)c3)c2)c2ccccc12 [38(p), N-(5-(tert-Butyl)-3-(3-(4-((2-((3,5-dimethylphenyl)amino)pyridin-4-yl)oxy)naphthalen-1-yl)ureido)-2-methoxybenzyl)acetamide] | 7.2
789 | COCCOCCOCCNC(=O)c1cc(Nc2cc(Oc3ccc(NC(=O)Nc4cc(C(C)(C)C)cc(C[S+](C)[O-])c4OC)c4ccccc34)ccn2)cc(OC)c1 (stereo not shown) [38(z), 3-((4-((4-(3-(5-(tert-Butyl)-2-methoxy-3-((methylsulfinyl)methyl)phenyl)ureido)naphthalen-1-yl)oxy)pyridin-2-yl)amino)-5-methoxy-N-(2-(2-(2-methoxyethoxy)ethoxy)ethyl)benzamide] | 0.6
280 | COc1c(NC(=O)Nc2ccc(Oc3ccnc(Nc4cccc(N=S(C)(C)=O)c4)n3)c3ccccc23)cc(C(C)(C)C)cc1P(C)(C)=O [Example 22, 1-(5-(tert-Butyl)-3-(dimethylphosphoryl)-2-methoxyphenyl)-3-(4-((2-((3-((dimethyl(oxo)-lambda-6-sulfanylidene)amino)phenyl)amino)pyrimidin-4-yl)oxy)naphthalen-1-yl)urea] | 3.3
186 | COc1c(NC(=O)Nc2ccc(Oc3ccnc(NC4CCOCC4)n3)c3ccccc23)cc(C(C)(C)C)cc1P(C)(C)=O [Example 31, 1-(5-(tert-Butyl)-3-(dimethylphosphoryl)-2-methoxyphenyl)-3-(4-((2-((tetrahydro-2H-pyran-4-yl)amino)pyrimidin-4-yl)oxy)naphthalen-1-yl)urea] | 2.6
